# Experimental data as given in patent US5707821A, “Identification of phospholipase A2 inhibitors in Aβ peptide-mediated neurodegenerative disease” (priority 1995, dated 1998).
# Columns and labels:
# Format in all cases: cell-based
# [1] = tested on: IL-1β release by cultured human cortical microglia; test: IL-1β release (ELISA) from Aβ1-40-stimulated human microglia
# Procedure: (§1) Cultures of human cortical or hippocampal astrocytes and microglia were prepared using a modification of the procedure described for cortical neurons. Cortical tissue from fetuses of 16 to 20 weeks of gestation was washed 3 times in Ca^2+ /Mg^2+ free Hanks balanced salt solution (CMF HBSS) and then dissociated by repeated pipetting. The solution was brought to a final volume of 80 ml CMF HBSS for approximately 10 ml of tissue. DNase (Sigma) was added to a final concentration of 0.05 mg/ml. 20 ml of the solution was passed through one 100 μm nylon cell strained (Falcon). The cells were then centrifuged for 5 minutes at 200×G in an IEC Clinical Centrifuge and resuspended in a trypsin/EDTA solution (0.05% trypsin+0.53 mM EDTA in HBSS; Gibco) and incubated for 20 minutes at 37°C. (10 ml of trypsin was added per 2-3 ml of tissue). The trypsin was then inactivated by adding (MEM/FBS): Modified Eagle's Medium (MEM) containing 1% glucose, 1 mM sodium pyruvate, 1 mM glutamine, and supplemented with 10% fetal bovine serum (JRH). After adding a final concentration of 0.05 mg/ml DNase the cells were resuspended and then pelleted by centrifugation and resuspended in MEM/FBS. 1.6×10^8 cells were seeded in a T-150 tissue culture flask coated with polyethyleneimine (PEI). (10% PEI (Sigma) was diluted 1:10 in H2 O, filtered through a […] unit and then diluted into 150 mM sodium borate pH 8.5 at 1:100. The flasks were coated overnight at room temperature, washed two times in PBS and coated with 20 ml/flask of MEM/FBS at 37° C. for at least one hour prior to plating cells.) Cultures were maintained in a H2 O-saturated incubator with an atmosphere of 95% air/5% CO2 at 37° C. The culture medium was changed one and four days after plating and the cultures were then left undisturbed for at least one week. After approximately two weeks in vitro, the flasks were gently shaken and floating microglia were collected and centrifuged for 5 minutes at 200×G in an IEC Clinical Centrifuge. The microglia were reseeded in 96 well tissue culture plates at a density of 5,000-40,000 cells/well in 125 μl in MEM/FBS. Astrocyte cultures were prepared by multiple passaging of the established mixed brain cell cultures. Each T-150 was incubated for 3-4 minutes at 37°C. with a trypsin/EDTA solution (see above). The trypsin was then inactivated by adding MEM/FBS. The cells were triturated and then pelleted by centrifugation and resuspended in MEM/FBS. The cells from one T-150 were seeded at a 1:30 to 1:5 dilution in T-150's not coated. Just prior to confluency the cells were repassaged by trypsinization as described above. This process was repeated until the cultures were >98% pure astrocytes.
# Cultured microglial cells were treated with 50 μM of Aβ1-40 or vehicle only (Control). The levels of IL-1β, IL-6, and TNF-α released into the culture medium were determined by ELISA assay (R&D Systems) according to manufacturer's instructions.
# The effect of two benzenesulfonamide inhibitors of PLA2 (European Patent Application 468 054) were examined on the activation of microglial cells by Aβ1-40 as in Example 1.
# (§2) The effects of the benzenesulfonamide PLA2 inhibitor AN20606 and the selective cytosolic PLA2 inhibitor arachidonyl trifluoromethyl ketone (AN20579) were examined in cultured human cortical microglia for their selectivity for inhibiting microglia activation mediated by amyloid-βpeptide and lipopolysaccharides (LPS). LPS are a major constituent of the cell wall of gama-negative bacteria and are extensively used for generating inflammatory responses in cultured cells and in vivo.
# [2] = tested on: IL-1β release by cultured human cortical microglia; test: IL-1 release from LPS-stimulated human cortical microglia
# Procedure: as §1, §2
# human cortical neurons = test: Aβ neurotoxicity in human cortical neurons (alamarBlue), 2 h pretreatment with inhibitor; conditions: Homo sapiens, Cortical neurone, 50 μM Aβ1-40, compound 390 nM to 100 μM, 2 h pretreatment and re-added with Aβ, 3 days, n=3
# Procedure: Cultures of human cortical or hippocampal neurons were prepared using a modification of the procedure described in P. Seubert et al. (1992), Nature 359:325-327. Cortical or hippocampal tissue was dissociated by incubation in a trypsin/EDTA solution (0.05% trypsin +0.53 mM EDTA in HBSS; Gibco) for 20 minutes at 37° C. The trypsin was then inactivated by resuspending the cells in serum-containing medium (MEM/FBS): Modified Eagle's Medium (MEM) containing 1% glucose, 1 mM sodium pyruvate, 1 mM glutamine, and supplemented with 10% fetal bovine serum (Gibco). Cells were then pelleted by centrifugation and resuspended in a chemically-defined medium (MEM/B27): MEM containing B27 supplement (Gibco) in place of FBS. Polyethyleneimine (PEI)-coated 6.4-mm (96-well) dishes were rinsed once with MEM/FBS, and then seeded at 0.75-1.25×10^5 cells per well in 0.1 ml MEM/B27. Cultures were maintained in a H2 O-saturated incubator with an atmosphere of 95% air/5% CO2 at 37° C. The culture medium was exchanged twice weekly.
# Amyloid-β (Aβ) stock solutions were prepared as 1 mM stocks in sterile ddH2 O immediately prior to addition to cultures. Rat cortical neurons were exposed to Aβ by removing the culture medium and replacing it with DMEM/N2 or DMEM/B27 containing Aβ1-40. Human cortical neurons were exposed to Aβ by removing the culture medium and replacing it with MEM, MEM/N2, or MEM/B27 containing Aβ1-40. Cultures were maintained for 2-4 days before neuronal survival was quantified using alamarBlue™.
# The alamarBlue™ assay incorporated a proprietary fluorometric/colorimetric metabolic indicator (Alamar Biosciences, Inc.). Viable cells convert alamarBlue™ from an oxidized (non-fluorescent, blue) form to a reduced (fluorescent, red) form. Assays were performed by replacing the culture media with a 10% alamarBlue™ solution in DMEM (rat cortical cultures) or MEM (human cortical cultures). Reduction of alamarBlue™ was determined spectrofluorometrically using a Millipore Cytofluor 2350 Scanner (excitation, […]; emission, 590 nm) and CytoCalc™ software (Millipore Corporation).
# The effect of pretreating human cortical neuron cultures with the benzenesulfonamide PLA2 inhibitors and arachidonyl trifluoromethyl ketone prior to exposure to a neurotoxic concentration of Aβ1-40 was determined.
# Human cortical neurons were treated with 50 μM Aβ1-40 and various inhibitors of PLA2. Compounds were added 2 hours prior to Aβ1-40 treatment at concentrations of 390 nM to 100 μM, and were then re-added at the time of Aβ1-40 treatment. Compounds were also added in an identical manner to neuronal cultures in the absence of Aβ1-40. Neuronal survival was determined after 3 days of treatment by alamarBlue®. IC50 is the dose of compound that inhibited Aβ-mediated neurotoxicity by 50%. […] Data represents the mean ± SD (n=3). ND, not detected at the concentration range used.
compound,measurement,setting,value
"CN(C(=O)/C=C/c1ccc(S(C)(=O)=O)cc1)c1ccc(S(=O)(=O)NC2CCCCCC2)cc1 [AN20606, N-cycloheptyl-4-[N-methyl-N-[(E)-3-(4-methylsulfonylphenyl)-2-propenoyl]amino]benzenesulfonamide]",amount of IL-1β released into the medium (in words),"[1]; 50 μM Aβ1-40, 1 day, compound 0, 5, 10, 20 μM, FIG. 2",marked and dose-dependent decrease
same,IL-1 Released,"[1]; 50 μM Aβ1-40, inhibitor 20 μM where present",16.5 ± 6 pg/mL
same,"Aβ1-40-mediated IL-1β release, selectivity versus LPS (in words)",[1]; Aβ1-40 versus LPS stimulation,selectively inhibited
same,activity at 20 µM,"[1]; Homo sapiens, Microglia, 50 μM Aβ1-40 + 20 μM inhibitor, read-out: IL-1 Released, percent in parentheses (relative to Aβ1-40 alone)",6%
same,IL-1 Released,"[2]; 10 ng/ml LPS, inhibitor 20 μM where present",37 ± 0.3 pg/mL
same,activity at 20 µM,"[2]; Homo sapiens, Microglia, 10 ng/ml LPS + 20 μM inhibitor, read-out: IL-1 Released, percent in parentheses (relative to LPS alone)",163%
same,"LPS-mediated cytokine release, IL-1 (in words)",[2]; LPS stimulation,actually enhanced
same,Emax,"human cortical neurons; 72 h, read-out: Max Inh",89%
same,IC50,"human cortical neurons; ND = not detected at the concentration range used, read-out: IC50 (dose that inhibited Aβ-mediated neurotoxicity by 50%)",3 µM
